Source: article PMC8205226, “HIV-1 Integrase Inhibitors with Modifications That Affect Their Potencies against Drug Resistant Integrase Mutants” (ACS Infectious Diseases, 2021)

Key:
[1] = system: HIV-1 IN double mutant G140S/Q148H; experiment: single-round infectivity assay, G140S/Q148H IN double mutant; type: cell-based
Experimental: (§1) Figure 2 Antiviral activities of the new compounds against RAL-resistant mutants. The EC50 values were determined using a vector that carries WT HIV-1 IN and the RAL-resistant mutants in a single round infection assay. […] Error bars represent the standard deviations of independent experiments, n = 4, performed in triplicate. The graph has a maximum value of 550 nM.
(§2) WT and mutant HIV-1 viral vectors were used in single-round infectivity assays to determine the antiviral potencies (EC50 values) of the compounds and the effects of the mutants on the EC50 values as previously described.[30],[54] Single round infectivity measurements were determined as done previously.[38]
(§3) The vector pNLNgoMIVR-ΔENV.LUC has been described previously.[26] To produce the new IN mutants used in this study, the IN open reading frame was removed from pNLNgoMIVR-ΔENV.LUC by digestion with KpnI and SalI, and the resulting fragment was inserted between the KpnI and SalI sites of pBluescript KS+. Using that construct as the wild-type template, we prepared the following HIV-1 IN mutants using the QuikChange II XL site directed mutagenesis kit (Agilent Technologies, Santa Clara, CA) protocol: N117A, N117H, P142A, P142H, P142S, Y143C, Y143H, S230R, R231G, and R231K. The following sense oligonucleotides were used with matching cognate antisense oligonucleotides (not shown) (Integrated DNA Technologies, Coralville, IA) in the mutagenesis: N117A, 5′-[…]-3′; N117H, 5′-[…]-3′; P142A, 5′-[…]-3′; P142H, 5′-[…]-3′; P142S, 5′-[…]-3′; Y143C, 5′- […]-3′; Y143H, 5′-[…]-3′; S230R, 5′- […]-3′; R231G, 5′-[…]-3′; R231K, 5′-[…]-3′.

HIV-1 IN mutant S230R = experiment: single-round infectivity assay, S230R IN mutant; type: cell-based
Experimental: (§4) Figure 5 Antiviral potencies of the new compounds against IN with mutations in the […]. The EC50 values were determined using a vector that carries the IN mutant in a single round infection assay. […] Error bars represent the standard deviations of independent experiments, n = 4, performed in triplicate.
as §2, §3

HIV-1 IN mutant N155H [2] = conditions: single round infection; previously reported; cited from earlier work
HIV-1 IN mutant N155H [3] = experiment: single-round infectivity assay, N155H IN mutant; type: cell-based
Experimental: as §1, §2, §3

HIV-1 IN mutant Y143R [4] = conditions: single round infection; previously reported; cited from earlier work
HIV-1 IN mutant N117A = experiment: single-round infectivity assay, N117A IN mutant; type: cell-based
Experimental: (§5) The EC50 values were determined using a vector that carries the IN mutant in a single round infection assay. […] Error bars represent the standard deviations of independent experiments, n = 4, performed in triplicate.
as §2, §3

HIV-1 IN mutant R231G = experiment: single-round infectivity assay, R231G IN mutant; type: cell-based
Experimental: as §4, §2, §3

[5] = system: HIV-1 IN double mutant G140S/Q148H; conditions: single round infection; previously reported; cited from earlier work
HIV-1 IN mutant G118R = experiment: single-round infectivity assay, G118R IN mutant; type: cell-based
Experimental: as §5, §2, §3

HIV-1 IN mutant Y143H = experiment: single-round infectivity assay, Y143H IN mutant; type: cell-based
Experimental: as §5, with “Figure 4 Mutations in the β5-α3 loop affect the antiviral potencies of the new compounds. The” for “The”
as §2, §3

HIV-1 IN mutant P142S = experiment: single-round infectivity assay, P142S IN mutant; type: cell-based
Experimental: as §5, with “Figure 4 Mutations in the β5-α3 loop affect the antiviral potencies of the new compounds. The” for “The”
as §2, §3

HIV-1 IN mutant Y143C = experiment: single-round infectivity assay, Y143C IN mutant; type: cell-based
Experimental: as §5, with “Figure 4 Mutations in the β5-α3 loop affect the antiviral potencies of the new compounds. The” for “The”
as §2, §3

HIV-1 IN mutant R231K = experiment: single-round infectivity assay, R231K IN mutant; type: cell-based
Experimental: as §4, §2, §3

HIV-1 IN mutant S119R = experiment: single-round infectivity assay, S119R IN mutant; type: cell-based
Experimental: as §5, §2, §3

HIV-1 IN mutant N117H = experiment: single-round infectivity assay, N117H IN mutant; type: cell-based
Experimental: as §5, §2, §3

WT HIV-1 = conditions: vector carrying WT HIV-1 IN, single round infection; previously reported; cited from earlier work
HIV-1 IN mutant Y143R [6] = experiment: single-round infectivity assay, Y143R IN mutant; type: cell-based
Experimental: as §1, §2, §3

HIV-1 IN mutant P142H = experiment: single-round infectivity assay, P142H IN mutant; type: cell-based
Experimental: as §5
Single round infectivity measurements were determined as done previously.[38]
as §3

HIV-1 IN mutant P142A = experiment: single-round infectivity assay, P142A IN mutant; type: cell-based
Experimental: as §5, with “Figure 4 Mutations in the β5-α3 loop affect the antiviral potencies of the new compounds. The” for “The”
as §2, §3

[7] = fold change in EC50, IN mutant versus WT HIV-1

## COC(=O)CNc1c(C(=O)NCc2ccc(F)cc2F)c(=O)n(O)c2ncccc12 [5′g]
[1]; EC50 compound / EC50 DTG
  ratio of the EC50s (our compound relative to DTG) against G140S/Q148H: 6.1
[1]; [7]
  FC G140S/Q148H: 9.3
HIV-1 IN mutant S230R; EC50 compound / EC50 DTG
  ratio of the EC50s (our compound relative to DTG) against S230R: 1.0
HIV-1 IN mutant S230R; Human immunodeficiency virus 1, read-out: EC50 values S230R
  EC50: 0.0045 ± 0.0015 µM
HIV-1 IN mutant S230R; [7]
  FC S230R: 1.2
HIV-1 IN mutant N155H [2]
  EC50: 0.019 ± 0.0069 µM
HIV-1 IN mutant N155H [3]; EC50 compound / EC50 DTG
  ratio of the EC50s (our compound relative to DTG) against N155H: 5.3
HIV-1 IN mutant N155H [3]; [7]
  FC N155H: 5.0
HIV-1 IN mutant Y143R [4]
  EC50: 0.0046 ± 0.0022 µM
HIV-1 IN mutant N117A; EC50 compound / EC50 DTG
  ratio of the EC50s (our compound relative to DTG) against N117A: 2.4
HIV-1 IN mutant N117A; Human immunodeficiency virus 1, read-out: EC50 values N117A
  EC50: 0.0012 ± 0.0002 µM
HIV-1 IN mutant N117A; [7]
  FC N117A: 0.3
HIV-1 IN mutant R231G; EC50 compound / EC50 DTG
  ratio of the EC50s (our compound relative to DTG) against R231G: 6.9
HIV-1 IN mutant R231G; Human immunodeficiency virus 1, read-out: EC50 values R231G
  EC50: 0.0097 ± 0.0024 µM
HIV-1 IN mutant R231G; [7]
  FC R231G: 2.6
[5]
  EC50: 0.0355 ± 0.0159 µM
HIV-1 IN mutant G118R; EC50 compound / EC50 DTG
  ratio of the EC50s (our compound relative to DTG) against G118R: 13.1
HIV-1 IN mutant G118R; Human immunodeficiency virus 1, read-out: EC50 values G118R
  EC50: 0.171 ± 0.0032 µM
HIV-1 IN mutant Y143H; EC50 compound / EC50 DTG
  ratio of the EC50s (our compound relative to DTG) against Y143H: 3.6
HIV-1 IN mutant Y143H; Human immunodeficiency virus 1, read-out: EC50 values Y143H, single round infection, n = 4
  EC50: 0.0079 ± 0.001 µM
HIV-1 IN mutant Y143H; [7]
  FC Y143H: 2.1
HIV-1 IN mutant P142S; EC50 compound / EC50 DTG
  ratio of the EC50s (our compound relative to DTG) against P142S: 12.4
HIV-1 IN mutant P142S; Human immunodeficiency virus 1, read-out: EC50 values P142S
  EC50: 0.0272 ± 0.0044 µM
HIV-1 IN mutant P142S; [7]
  FC P142S: 7.2
HIV-1 IN mutant Y143C; EC50 compound / EC50 DTG
  ratio of the EC50s (our compound relative to DTG) against Y143C: 28.1
HIV-1 IN mutant Y143C; Human immunodeficiency virus 1, read-out: EC50 values Y143C, single round infection, n = 4
  EC50: 0.0393 ± 0.0073 µM
HIV-1 IN mutant Y143C; [7]
  FC Y143C: 10.3
HIV-1 IN mutant R231K; EC50 compound / EC50 DTG
  ratio of the EC50s (our compound relative to DTG) against R231K: 2.2
HIV-1 IN mutant R231K; Human immunodeficiency virus 1, read-out: EC50 values R231K, single round infection, n = 4
  EC50: 0.0092 ± 0.0021 µM
HIV-1 IN mutant R231K; [7]
  FC R231K: 2.4
HIV-1 IN mutant S119R; EC50 compound / EC50 DTG
  ratio of the EC50s (our compound relative to DTG) against S119R: 9.7
HIV-1 IN mutant S119R; Human immunodeficiency virus 1, read-out: EC50 values S119R
  EC50: 0.0223 ± 0.0017 µM
HIV-1 IN mutant S119R; [7]
  FC S119R: 5.9
HIV-1 IN mutant N117H; EC50 compound / EC50 DTG
  ratio of the EC50s (our compound relative to DTG) against N117H: 2.3
HIV-1 IN mutant N117H; Human immunodeficiency virus 1, read-out: EC50 values N117H
  EC50: 0.0056 ± 0.0009 µM
HIV-1 IN mutant N117H; [7]
  FC N117H: 1.5
WT HIV-1
  EC50: 0.0038 ± 0.0012 µM
HIV-1 IN mutant Y143R [6]; EC50 compound / EC50 DTG
  ratio of the EC50s (our compound relative to DTG) against Y143R: 1.1
HIV-1 IN mutant Y143R [6]; [7]
  FC Y143R: 1.2
HIV-1 IN mutant P142H; EC50 compound / EC50 DTG
  ratio of the EC50s (our compound relative to DTG) against P142H: 4.6
HIV-1 IN mutant P142H; Human immunodeficiency virus 1, read-out: EC50 values P142H
  EC50: 0.0128 ± 0.0029 µM
HIV-1 IN mutant P142H; [7]
  FC P142H: 3.4
HIV-1 IN mutant P142A; EC50 compound / EC50 DTG
  ratio of the EC50s (our compound relative to DTG) against P142A: 5.6
HIV-1 IN mutant P142A; Human immunodeficiency virus 1, read-out: EC50 values P142A
  EC50: 0.0141 ± 0.0003 µM
HIV-1 IN mutant P142A; [7]
  FC P142A: 3.7
